The results in this text go back to US20260176252A1, “IONIZABLE LIPIDS WITH BRANCHED HEAD GROUPS” (Beam Therapeutics Inc., priority 2023, published 2026).

Each structure is given as a SMILES string.

Data set [1] can be described thus: Dynamic light scattering (DLS) of LNP preparations: size (diameter) and polydispersity. In kind it is physicochemical. The settings on record: Table D; LNP formulation ratio 47.5:40:2.5:10, ABE mRNA + PCSK9 sgRNA 1:1. The method, then: A ratio of aqueous to organic solvent of approximately 2:1 or 3:1 was maintained during mixing using differential flow rates. After mixing, LNP preparations were collected, diluted in phosphate buffer saline (PBS) or Tris-buffered saline (TBS) (approximately 1:1 v/v). Further buffer exchange was conducted using dialysis in PBS or TBS at 4° C. for 4 to 24 hours against a 20 kDa filter. After this initial dialysis, each individual LNP preparation may be characterized via dynamic light scattering (DLS) to measure the size (e.g., diameter) and polydispersity. LNP preparations falling within specific diameter and polydispersity ranges were pooled, and further dialyzed against PBS or TBS at 4° C. for 1 to 4 hours against a 100 kDa dialysis cassette. After the second dialysis, LNP preparations were sterile filtered using 0.22 μm filter and stored at 4° C. for further use.
(§1) LNP preparations are formed by microfluidic mixing of the lipid and NA solutions using a Precision Nanosystems NanoAssemblr Ignite Instrument, according to the manufacturer's protocol. A 3:1 ratio of aqueous to organic solvent is maintained during mixing using differential flow rates. After mixing, LNP preparations are collected, diluted in PBS (approximately 2:1 v/v), and further buffer exchange is conducted using dialysis in PBS at 4° C. for 8 to 24 hours against a 20 kDa filter. After this initial dialysis, each individual LNP preparation is characterized via dynamic light scattering (DLS) to measure size and polydispersity. pKa of a subpopulation of LNP preparations is measured via TNS assay. After dialysis, LNP preparations are sterile filtered using 0.22 micron sterile filter and stored at 4° C. for further use. In some embodiments, LNP preparations may be concentrated using 100 kDa Amicon filters per manufacturer's protocol.
DLS-LNP preparation hydrodynamic diameter and polydispersity index (PDI) is measured using high throughput dynamic light scattering (DLS) (DynaPro plate reader II, Wyatt). LNP preparations are diluted 1×PBS to an appropriate concentration and analyzed.

Data set [2] can be described thus: Encapsulation efficiency of LNP preparations (unlysed and lysed LNPs). It is filed as physicochemical. The note with it: Table D; LNP formulation ratio 47.5:40:2.5:10, ABE mRNA + PCSK9 sgRNA 1:1. The method, then: Concentration of NA is determined by Qubit microRNA kit (for siRNA) or HS RNA kit (for mRNA) per manufacturer's instructions. Encapsulation efficiency is determined by measuring unlysed and lysed LNPs.

The test system of data set [3] is PCSK9 target site. The data set can be described thus: In vivo base editing with LNP-delivered ABE mRNA and sgRNA targeting PCSK9. The settings on record: Balb/c mice, IV tail vein, 0.03 mg/kg total RNA, 4 days after dosing. As to the method: Lipid nanoparticle components are dissolved in 100% ethanol at specified lipid component molar ratios. mRNA encoding an adenine base editor and a chemically-modified sgRNA is dissolved at a mass ratio of 1:1 in 10 mM citrate, 100 mM NaCl, pH 4.0, resulting in a concentration of NA cargo of approximately 0.22 mg/mL. LNP preparations are formulated with molar ratios of either 50% Ionizable Lipid:38.5% Cholesterol:1.5% PEG2000-DMG: 10% DSPC or 47.5% Ionizable Lipid:40% Cholesterol:2.5% PEG2000-DMG: 10% DSPC both at a total lipid to NA molar ratio of 6.
as §1
Male Balb/C mice aged approximately 8-12 weeks are used in the experiments described herein. Each mouse is temporarily restrained, and LNP preparations are administered IV via tail vein injection. Age-matched mice are also used to administer vehicle (1×PBS) via tail vein injection as a control. […]
For base editing, mRNA encoding an adenine base editor (ABE) and a guide RNA (sgRNA) targeting PCSK9 at 1:1 (mass ratio) are coencapsulated in LNP preparations as described herein. […] Base editing is determined by performing targeted deep sequencing analysis at the PCSK9 target site using extracted genomic DNA.

Data set [4] is described as follows: pKa of LNP preparations via TNS assay. It is filed as physicochemical. The settings on record: Table D; LNP formulation ratio 47.5:40:2.5:10. The method, then:
as §1

For orientation: pKa means the pH at which an ionisable group is half protonated. In the case of `C=CC(C)(CCC=C(C)CCC=C(C)C)OC(=O)CCCCCC(=O)OCC(COC(=O)CCCCCC(=O)OC(C)(C=C)CCC=C(C)CCC=C(C)C)COC(=O)CCC(CCCCCC)OC(=O)NCCN1CCCC1` (stereo not drawn) [Example 13, 1-{2-[({7-oxo-7-[(3,7,11-trimethyldodeca-1,6,10-trien-3-yl)oxy]heptanoyl}oxy)methyl]-3-{[4-({[2-(pyrrolidin-1-yl)ethyl]carbamoyl}oxy)decanoyl]oxy}propyl}7-(3,7,11-trimethyldodeca-1,6,10-trien-3-yl) heptanedioate], in data set [1], the “Diameter (nm)” value amounted to 73.3 nm. For the same compound, in data set [2], the “EE (%)” value was determined as 96.1%. In addition, the “Liver Editing A->G (%)” value in data set [3] turned out to be 1.2%. For the same compound, the pKa in data set [4] is listed as 6.72.

Regarding `CCCCCCC(CCC(=O)OCC(COC(=O)CCCCCC(=O)OCC=C(C)CCC=C(C)CCC=C(C)C)COC(=O)CCCCCC(=O)OCC=C(C)CCC=C(C)CCC=C(C)C)OC(=O)NCCN1CCCC1` (stereo not drawn) [Example 14, 1-{2-[({7-oxo-7-[(3,7,11-trimethyldodeca-2,6,10-trien-1-yl)oxy]heptanoyl}oxy)methyl]-3-{[4-({[2-(pyrrolidin-1-yl)ethyl]carbamoyl}oxy)decanoyl]oxy}propyl}7-(3,7,11-trimethyldodeca-2,6,10-trien-1-yl) heptanedioate], in data set [1], the “Diameter (nm)” value is 77.15 nm. In data set [2], the “EE (%)” value came out at 97.7%. The “Liver Editing A->G (%)” value in data set [3] amounted to 23.6%. In data set [4], the pKa stood at 6.78.

In the case of `CCCCCCC(CCC(=O)OCC(COC(=O)CCCCCC(=O)OCC=C(C)CCCC(C)CCCC(C)CCCC(C)C)COC(=O)CCCCCC(=O)OCC=C(C)CCCC(C)CCCC(C)CCCC(C)C)OC(=O)NCCN1CCCC1` (stereo not drawn) [Example 15, 1-{2-[({7-oxo-7-[(3,7,11,15-tetramethylhexadec-2-en-1-yl)oxy]heptanoyl}oxy)methyl]-3-{[4-({[2-(pyrrolidin-1-yl)ethyl]carbamoyl}oxy)decanoyl]oxy}propyl}7-(3,7,11,15-tetramethylhexadec-2-en-1-yl) heptanedioate], the “Diameter (nm)” value in data set [1] is 74.1 nm. In addition, the “EE (%)” value in data set [2] worked out at 98.5%. For the same compound, the “Liver Editing A->G (%)” value in data set [3] is listed as 15.7%. Moreover, in data set [4], the pKa was found to be 6.32.
